From patent US3975399A, “1,5-Disubstituted-2-pyrrolidinones, -3-pyrrolin-2-ones, and -4-pyrrolin-2-ones” (E. I. Du Pont de Nemours and Company, priority 1974, dated 1976)
In brackets after ≈: the same amount, converted by molar mass.

Assays:
bronchial smooth muscle = details: cited from earlier work
[1] = tested on: adjuvant-induced arthritis in rats; experiment: Systemic antiinflammatory activity against adjuvant-induced arthritis in rats; assay type: in vivo, rat; details: intraperitoneal injection, 50 mg/kg
[2] = tested on: croton oil-induced inflammation of mouse ears; experiment: Topical antiinflammatory activity against croton oil-induced inflammation of mouse ears; assay type: in vivo; details: 2-3 mg/ear
[3] = tested on: rat uterine smooth muscle; experiment: Contraction of rat uterine smooth muscle
inflammation = experiment: Topical and injectable antiinflammatory activity (general statement); assay type: in vivo
[4] = tested on: PGE1-induced smooth muscle contractions; experiment: Antagonism of PGE1-induced smooth muscle contractions; details: read-out: antagonizes PGE1-induced smooth muscle contractions, concentration for 50% inhibition
[5] = tested on: croton oil-induced inflammation of rat ears; experiment: Topical antiinflammatory activity against croton oil-induced inflammation of rat ears; assay type: in vivo; details: 2-3 mg/ear
[6] = tested on: histamine-induced bronchoconstriction; experiment: Histamine-induced bronchoconstriction; details: in vivo
[7] = tested on: gastrin-induced gastric acid secretion; experiment: Gastrin-induced gastric acid secretion; details: in vivo

Compound | systemic antiinflammatory activity [1] | topical antiinflammatory activity [2] | active as injectable antiinflammatory agent (inflammation) | active as topical antiinflammatory agent (inflammation) | topical antiinflammatory activity [5] | also measured
CCCCC[C@H](O)/C=C/[C@@H]1[C@@H](C/C=C\CCCC(=O)O)[C@@H](O)C[C@H]1O [PGF2 α] | – | – | – | – | – | contracting action (bronchial smooth muscle): contracting action
CCCCCC(O)/C=C/C1CCC(=O)N1CCCCCCC(=O)OC(C)(C)C (stereo not drawn) [Compound 4, Tert-butyl 7-[2-Oxo-5-(3-hydroxy-1-oct-1-enyl)-1-pyrrolidinyl]heptanoate] | also active, though slightly less so | also active, though slightly less so | active | active | also active, though slightly less so | antagonism of the contracting action of compound 5 ([3]; rat uterine smooth muscle, compound 5-induced contraction): is antagonized in this action; IC50 [4]: 10 µg/mL (≈ 25.3 µM)
CCCCC[C@H](O)/C=C/[C@H]1[C@H](O)CC(=O)[C@@H]1CCCCCCC(=O)O [PGE1, reference compound] | – | – | – | – | – | effect on the contracting action of PGF2α (bronchial smooth muscle): reverses or antagonizes; contraction of rat uterine smooth muscle (in words) ([3]; comparator for compound 5): contracts rat uterine smooth muscle
CCCCCC(O)/C=C/C1CCC(=O)N1CCCCCCC(=O)O (stereo not drawn) [Compound 5, 7-[2-Oxo-5-(3-hydroxy-1-oct-1-enyl)-1-pyrrolidinyl]-heptanoic Acid] | has shown activity | has shown activity | active | active | has shown activity | activity as antagonist to histamine-induced bronchoconstriction [6]: has shown activity; contracts rat uterine smooth muscle (concentration) ([3]; in the same way as PGE1): 50 ng/mL; activity in cutting off gastrin-induced gastric acid secretion [7]: has shown activity
